B1: neurotrophin-3 (protein, UniProt P20783 139-257, looked up)
Neurotrophin-3: YAEHKSHRGEYSVCDSESLWVTDKSSAIDIRGHQVTVLGEIKTGNSPVKQYFYETRCKEARPVKNGCRGIDDKHWNSQCKTSQTYVRALTSENNKLVGWRWIRIDTSCVCALSRKIGRT
modifications: Neurotrophin-3
notes: neurotrophic agent neurotrophin-3

Legend:
[1] = tested on: Sciatic Nerves from Tr^J Mice; test: Histopathology and myelinated fiber density, sciatic nerves at 16 weeks of treatment (Example 2); format: in vivo
TrJ mice [2] = test: Nerve conduction studies, AAV1.NT-3 and pyruvate combinatorial therapy (Example 2); format: in vivo; details: 4 months of treatment, 4% SP in drinking water; control group decreased (P<0.05)
Protocol: FIG. 4 provides a bar graph showing the results of nerve conduction studies that were performed at baseline and endpoint following 4 months of treatment duration. […] (Error bars represent standard error of the mean. Student t test was performed).
Using the methods described below, nerve conduction studies were performed at the baseline and the endpoint, 4 months post-AAV1.NT-3 injection. During this period TrJ mice were given ad libitum access to drinking water containing 4% SP.
(§1) Nerve Conduction Studies: Sciatic motor nerve conduction studies were performed on mice under isoflurane anesthesia using a portable electrodiagnostic system (Synergy N2 EMG and nerve conduction study machine, Natus, Middleton, Wis.) as previously described. Yalvac et al., Mol Ther. 22(7):1353-63 (2014). Distance for electrode placement was measured using a compass with a needle edge and a millimeter-graduated tape measure. The sciatic motor nerve conduction responses were recorded using two fine ring electrodes (Alpine Biomed, Skovlunde, Denmark) used as the active (E1) and reference (E2) electrodes. The active recording electrode was placed over the mid portion of the gastrocnemius muscle and the reference electrode over the tendon. […] The parameters measured included compound muscle action potential (CMAP) amplitude, distal latency, and conduction velocity.

[3] = tested on: Sciatic Nerves from Tr^J Mice; test: Myelinated fiber density determinations, sciatic nerve crush/regeneration study (Example 1); format: in vivo; details: 4% sodium pyruvate in drinking water, twenty weeks after crush
Protocol: (§2) Six weeks old Tr^J mice (pmp22^Tr-J) were used in this study. A total of 8 Tr^J mice (mouse model for demyelinating CMT) were studied. Five received SP, 4% in drinking water, 3 mice left untreated to serve as control. All treatment protocols and animal surgeries were conducted under the protocols approved by the Nationwide Children's Hospital and The Ohio State University Animal Care and Use Committee. Animals were acclimatized by placing on 2.5% apple juice first, which was increased to 20% a week later. In one group (pyruvate group; n=5) sodium pyruvate (Sigma) was added to apple juice in 2.5% concentration and a week later increased to 4%. The pyruvate group remained 4% sodium pyruvate in 20% apple juice drinking water throughout the duration of the study. The control group (n=3) continued on 20% apple juice only. Drinking solutions were freshly prepared every other day.
Both groups underwent sciatic nerve crush procedure one week after starting on sodium pyruvate in apple juice or apple juice alone, providing the results shown in FIGS. 1 and 2. […]
Quantitative analysis at the light microscopic level was performed on 1 μm-thick toluidine blue stained cross sections from regenerating and intact uncrushed sciatic nerves from pyruvate and control groups. […] Unpaired t-test was calculated using graphPad Prism 6 program for comparison of the two sets of data.

Tr^J mice [4] = test: Sciatic nerve conduction studies (Example 1); format: in vivo
Text: Additional studies were designed to assess the efficacy of pyruvate treatment using a quantitative test that has functional significance. […] Among the parameters obtained from these studies CMAP is a direct measure of the size of the motor unit. Results were compared to age-matched Tr^J-control cohort. Functional studies (hind limb grip strength, wire hanging test and rotorod) were done at baseline and at 7 to 10 day intervals.
as §1

[5] = tested on: Sciatic Nerves from Tr^J Mice; test: g ratio of the myelinated fibers, sciatic nerve crush/regeneration study (Example 1); format: in vivo; details: for percent of fibers with G ratio less than 0.8: SP 4% in drinking water, 20 weeks; for percent of fibers within a G ratio range of 0.4-0.7: pyruvate group, control Tr^J 6.5%
Protocol: as §2
Both groups underwent sciatic nerve crush procedure one week after starting on sodium pyruvate in apple juice or apple juice alone, providing the results shown in FIGS. 1 and 2. Under isoflurane anesthesia left sciatic nerves were exposed and crushed with a fine forceps at a level 5 mm distal to the sciatic notch to generate a regeneration paradigm as previously described. Sahenk et al., Exp Neurol 224, 495-506 (2010). The crush site was marked by a 10-0 nylon suture tie passed through the epineurium. Mice were then killed quickly by an over-dosage of xylazine/ketamine anesthesia and the sciatic nerves from crushed and intact sites were removed under a dissecting microscope. Approximately 2 mm in length tissue blocks immediately distal to the crush site and the subsequent three segments, all marked for proximo-distal orientation as well as the mid sciatic segments from the contralateral uncrushed nerves were processed for plastic embedding for light microscope thick sections and electron microscopy using standard methods established by the inventors.
The g ratio refers to the ratio of axonal diameter/fiber diameter and lower g ratios represent axons with thicker myelin. Beuche, W., and Friede, R. L., Acta Neuropathol 66, 29-36 (1985); Friede, R. L., and Beuche, W., J Neurol Neurosurg Psychiatry 48, 749-756 (1985). For each animal, measurements from all fibers in 3 randomly selected representative unit areas were included and the g ratio distribution histograms were generated as percent of total fibers analyzed as previously described. Measurements from regenerating and intact nerves were obtained in each group. One way ANOVA was used to determine statistical analysis.

Tr^J mice [6] = test: Functional studies: hind limb grip strength, wire hanging test (Example 1); format: in vivo; details: at 16 weeks of treatment
Protocol: Additional studies were designed to assess the efficacy of pyruvate treatment using a quantitative test that has functional significance. Six Tr^J mice received SP in their drinking water and the sciatic nerve conduction studies were carried out at baseline and 16 weeks of SP supplementation. Among the parameters obtained from these studies CMAP is a direct measure of the size of the motor unit. Results were compared to age-matched Tr^J-control cohort. Functional studies (hind limb grip strength, wire hanging test and rotorod) were done at baseline and at 7 to 10 day intervals.
Wire Hang test: The mice were allowed to grasp by their four paws a 2-mm diameter metal wire maintained horizontally 35 cm above a thick layer of soft bedding (device made by the NCH Bioengineering Department according to the specifications of Klein et al.). Klein et al. J Neurosci Methods, 203:292-297 (2012). The length of time until the mice fell from the wire was recorded. After each fall, the mice were allowed to recover for 1 minute. […]
Motor function testing Tr^J mice were tested for baseline motor function within 1 week prior to receiving i.m. injection of ssAAV1.CMV.NT-3 or PBS. […] Bilateral or unilateral grip strength was assessed by allowing the animals to grasp a platform followed by pulling the animal until it releases the platform; the force measurements were recorded in four separate trials. […]

TrJ mice [7] = test: Motor function: grip strength test and four-limb wire hanging strength test (Example 2); format: in vivo; details: endpoint, 4 months post injection; P<0.05
Protocol: Mice were tested for motor functions at the endpoint (4 months post injection) by performing grip strength test and four-limb wire hanging strength test. […] (Error bars represent standard error of the mean. Student t test was performed).
Wire Hang test: The mice were allowed to grasp by their four paws a 2-mm diameter metal wire maintained horizontally 35 cm above a thick layer of soft bedding (device made by the NCH Bioengineering Department according to the specifications of Klein et al.). […] The length of time until the mice fell from the wire was recorded. After each fall, the mice were allowed to recover for 1 minute. Each session consisted of three trials from which the scores were averaged.
Motor function testing Tr^J mice were tested for baseline motor function within 1 week prior to receiving i.m. injection of ssAAV1.CMV.NT-3 or PBS. Motor function tests included bilateral simultaneous hindlimb grip power and that of the left hind paw using a grip strength meter (Chatillon Digital Meter; Model DFIS-2; Columbus Instruments, Columbus, Ohio). Bilateral or unilateral grip strength was assessed by allowing the animals to grasp a platform followed by pulling the animal until it releases the platform; the force measurements were recorded in four separate trials. Measurements were performed on the same day and time of each week. […]

trembler^J (Tr^J) mouse = details: previous studies of the inventors; cited from earlier work
CMT1A patients = details: previous studies of the inventors; cited from earlier work

| Molecule | myelinated fibers and myelin thickness in toluidine blue stained sciatic nerve sections vs untreated ([1]; TrJ mice, 16 weeks of treatment) | Myelinated Fiber Density, mean ± SEM ([1]; sciatic nerves, Tr^J mice, treatment duration 16 wks) | CMAP amplitudes at the endpoint compared to the baseline (TrJ mice [2]) | Myelinated Fiber Density, Intact, mean ± SEM ([3]; intact (uncrushed) sciatic nerve, p = 0.0271 vs control) | Myelinated Fiber Density, Regenerating, mean ± SEM ([3]; regenerating (crushed) sciatic nerve, p = 0.0075 vs control) | Trends for improvements in conduction velocities and distal latencies (Tr^J mice [4]; Tr^J mice, pyruvate supplementation) | CMAP amplitude of the Tr^J sciatic nerves, baseline vs endpoint (Tr^J mice [4]; pyruvate supplementation for 24 weeks, untreated controls deteriorated further) | G ratios (axon diameter/fiber diameter) in comparison to the control Tr^J ([5]; intact and regenerating sciatic nerves, lower g ratio = thicker myelin) | percent of fibers with G ratio less than 0.8 ([5]; intact nerves, control 42%) | percent of fibers within a G ratio range of 0.4-0.7 ([5]; intact nerves) | percent of fibers with G ratio less than 0.8 ([5]; regenerating nerves, control 17%) | percent of fibers within a G ratio range of 0.4-0.7 ([5]; regenerating nerves) | improving myelination during regeneration, more than that of the control group ([5]; regenerating nerves, pyruvate supplementation) | hind limb grip strength compared to the untreated Tr^J controls (Tr^J mice [6]) | wire hanging test (WHT) compared to the untreated Tr^J controls (Tr^J mice [6]) | four-limb wire hanging strength test vs control group (TrJ mice [7]) | grip strength test vs control group (TrJ mice [7]) | effect on trembler^J (Tr^J) mouse (trembler^J (Tr^J) mouse) | efficacy in CMT1A patients (CMT1A patients) |
| --- | --- | --- | --- | --- | --- | --- | --- | --- | --- | --- | --- | --- | --- | --- | --- | --- | --- | --- | --- |
| CC(=O)C(=O)[O-].[Na+] [pyruvate, sodium pyruvate] | notable increase in myelinated fibers and increased myelin thickness | 15000.2 ± 878.4 number/mm2 | preserved their CMAPs | 16583 ± 749 number/mm2 | 18259 ± 1051 number/mm2 | not significant | protected CMAP amplitude | significantly reduced | about 53% | about 29% | 43% | 22% | about 27% | significantly better | significantly better | performed better than control group | performed better than control group | – | – |
| B1 | – | – | – | – | – | – | – | – | – | – | – | – | – | – | – | – | – | improved | showed efficacy |
